Results as given in patent publication US20240317746A1, “CRYSTALLINE FORMS OF AN AZETIDINE PARP1 INHIBITOR” (XinThera, Inc., priority 2023, published 2024).
≈ marks a conversion by molar mass, not a printed value. Like-named read-outs stand apart in the source and are kept apart here.

Legend:
[1] = Polymorph screening (slurry conversion, cooling, evaporation, anti-solvent, cyclic heating-cooling, salt break); conditions: about 20 mg in 1 mL
Description: Form I was obtained from most polymorph screening experiments. […]
Cyclic heating-cooling experiments were carried out in Crystal 16 Parallel Crystallizer. About 20 mg of Compound 1 (starting material) was added into 1 mL solvents, and a heating-cooling program was performed: • 1. Equilibrated first at 20° C., and heated to 75 or 100° C. at 0.2° C./min (the elevated temperature is set according to boiling point of solvent). • 2. Held at 75 or 100° C. for 1 h. • 3. Cooled to 20° C. at 0.2° C./min and hold for 1 h. • 4. Repeated the above procedures once.
Turbidimeter from Crystal 16 recorded if solids were completely dissolved during heating. Form I was obtained in most solvent systems. […]

[2] = Preliminary solubility test: estimated solubility at RT by visual observation; assay type: physicochemical
Description: The solubility of Compound 1 (starting material) was estimated at RT in 18 single solvents and 6 solvent mixtures by visual observation. Approximately 5 mg solids were weighed into 8 mL glass vial, and then solvent was added stepwise until solids were dissolved completely or a total of solvent volume reached 5 mL. […] The solubility was estimated and for reference only.

[3] = Stability relationship study (slurry turnover of Form II); assay type: physicochemical
Description: Form II was prepared via heating starting material to 220° C. in DSC pans. Then, about 15 mg of Form II was stirred in 0.5 mL of selected solvent at desired temperatures for 2 and 5 days. Solid samples were collected by filtration and characterized by XRPD.

Hot Dissolution ([1]; 2-MeTHF, 75° C.)	Hot Dissolution ([1]; ACN/Water (9/1), 75° C.)	Hot Dissolution ([1]; DMAc/Toluene (1/2), 100° C.)	Hot Dissolution ([1]; EtOH, 75° C.)	Hot Dissolution ([1]; MEK, 75° C.)	Hot Dissolution ([1]; MIBK, 100° C.)	Hot Dissolution ([1]; n-Butanol/Anisole (1/1), 100° C.)	solubility ([2]; DCM/MeOH (1/1), organic solvent or mixture, thermodynamic from solid, DCM/MeOH (1/1), read-out: Solubility) [µg/mL]	solubility ([2]; DCM/MeOH (4/1), listed as Compound 1 (starting material))	solubility ([2]; DMSO, DMF, DMAc (each), organic solvent or mixture, thermodynamic from solid, DMSO, DMF, DMAc, read-out: Solubility) [µg/mL]	solubility ([2]; organic solvent or mixture, thermodynamic from solid, Acetone/Water (9/1), ACN/Water (9/1), MeOH/Water (9/1), Acetone/EtOH (1/1), THF, MeOH, read-out: Solubility) [µg/mL]	solubility ([2]; water, thermodynamic from solid, EtOH, IPA, Acetone, EtOAc, ACN, Water, DCM, 2-MeTHF, Toluene, MTBE, MEK, Heptane, read-out: Solubility) [µg/mL]	Slurry turnover output (XRPD) Day 2 ([3]; ACN, 80° C.)	Slurry turnover output (XRPD) Day 5 ([3]; ACN, 80° C.)	Slurry turnover output (XRPD) Day 2 ([3]; Acetone, 50° C.)	Slurry turnover output (XRPD) Day 2 ([3]; Acetone, RT)	form after slurry in selected solvents (XRPD) ([3]; stirred at desired temperatures (RT to 80° C.) for 2 and 5 days)	Compound
Yes	No	Yes	Yes	No	No	Yes	5000 to 20000 (≈ 11.4 to 45.5 mM)	50~100 mg/mL	20000 to 50000 (≈ 45.5 to 114 mM)	1000 to 5000 (≈ 2.27 to 11.4 mM)	< 1000	–	–	–	–	–	C[C@@H]1[C@@H](Oc2ccc(C(=O)NC3CC3)nc2)CN1Cc1cnc2cc(Cl)c(=O)[nH]c2c1 [Compound 1, 5-(((2R,3S)-1-((7-chloro-6-oxo-5,6-dihydro-1,5-naphthyridin-3-yl)methyl)-2-methylazetidin-3-yl)oxy)-N-cyclopropylpicolinamide]
–	–	–	–	–	–	–	–	–	–	–	–	Form I + II	Form I	Form I	Form I	converted to Form I at all conditions	C[C@@H]1[C@@H](Oc2ccc(C(=O)NC3CC3)nc2)CN1Cc1cnc2cc(Cl)c(=O)[nH]c2c1 [Freebase Form II, 5-(((2R,3S)-1-((7-chloro-6-oxo-5,6-dihydro-1,5-naphthyridin-3-yl)methyl)-2-methylazetidin-3-yl)oxy)-N-cyclopropylpicolinamide]
